Test results reported in ChEMBL document CHEMBL3232788, “1-(2-Hydroxy-2-methyl-3-phenoxypropanoyl)indoline-4-carbonitrile derivatives as potent and tissue selective androgen receptor modulators” (J Med Chem, 2014).
Converted amounts (≈) assume the structure as drawn. The source made the active and inactive calls. No cut-off for these calls is given here.

Assays:
Rattus norvegicus [1] = experiment: Toxicity in Sprague-Dawley rat assessed as effect on serum luteinizing hormone level at 100 mg/kg, sc qd for 14 days relative to vehicle-treated control; format: organism-based; design: dose 100 mg/kg, route subcutaneous; settings: in vivo, 336 h
[2] = Toxicity in sc dosed Sprague-Dawley rat administered qd for 14 days; format: organism-based; settings: in vivo
Rattus norvegicus [3] = experiment: Toxicity in Sprague-Dawley rat assessed as effect on serum LDL level at 3 to 100 mg/kg, sc qd for 14 days relative to vehicle-treated control; format: organism-based; design: dose 3-100 mg/kg, route subcutaneous; settings: in vivo, 336 h
[4] = Cytotoxicity against human THLE cells; format: cell-based
Cytochrome P450 2C9 = Cytochrome P450 2C9 (Homo sapiens, UniProt P11712); experiment: Inhibition of CYP2C9 (unknown origin) at 3 uM; format: ADME
Androgen receptor [5] = target: T1, Androgen receptor (Homo sapiens, UniProt P10275); experiment: Agonist activity at human AR expressed in CV1 cells after 17 hrs by luciferase reporter gene assay; format: cell-based, CV-1
T1 sequence (P10275 whole entry): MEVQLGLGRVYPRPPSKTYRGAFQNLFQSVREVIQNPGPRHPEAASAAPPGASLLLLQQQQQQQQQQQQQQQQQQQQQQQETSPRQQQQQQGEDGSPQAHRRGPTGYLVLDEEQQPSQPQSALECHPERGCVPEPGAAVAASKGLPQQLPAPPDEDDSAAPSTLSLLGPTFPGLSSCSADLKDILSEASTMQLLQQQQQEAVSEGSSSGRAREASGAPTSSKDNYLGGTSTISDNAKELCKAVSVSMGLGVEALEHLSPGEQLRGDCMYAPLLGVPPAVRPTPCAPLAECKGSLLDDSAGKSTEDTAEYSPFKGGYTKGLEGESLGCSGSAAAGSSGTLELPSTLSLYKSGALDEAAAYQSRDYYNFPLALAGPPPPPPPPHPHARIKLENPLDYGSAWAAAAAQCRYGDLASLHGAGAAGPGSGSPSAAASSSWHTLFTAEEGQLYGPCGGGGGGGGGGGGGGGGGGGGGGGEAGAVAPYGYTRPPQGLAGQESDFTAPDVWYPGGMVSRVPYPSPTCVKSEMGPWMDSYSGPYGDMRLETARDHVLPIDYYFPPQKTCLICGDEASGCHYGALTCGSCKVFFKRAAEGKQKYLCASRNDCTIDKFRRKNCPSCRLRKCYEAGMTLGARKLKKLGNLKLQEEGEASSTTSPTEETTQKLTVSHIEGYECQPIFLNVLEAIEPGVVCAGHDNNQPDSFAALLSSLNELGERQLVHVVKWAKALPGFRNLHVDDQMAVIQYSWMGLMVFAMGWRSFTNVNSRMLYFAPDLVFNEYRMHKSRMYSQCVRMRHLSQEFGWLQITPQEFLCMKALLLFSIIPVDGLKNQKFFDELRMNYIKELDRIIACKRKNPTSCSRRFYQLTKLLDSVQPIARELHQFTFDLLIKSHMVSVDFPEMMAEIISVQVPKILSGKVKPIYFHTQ

[6] = AUC in Sprague-Dawley rat at 2 mg/kg, iv; format: ADME, organism-based; design: dose 2 mg/kg, route intravenous; settings: plasma
[7] = Volume of distribution at steady state in Sprague-Dawley rat at 2 mg/kg, iv; format: ADME, organism-based; design: dose 2 mg/kg, route intravenous; settings: in vivo, read-out: Vdss
[8] = Cmax in Sprague-Dawley rat at 6 mg/kg, po; format: ADME, organism-based; design: dose 6 mg/kg, route oral; settings: in vivo
[9] = Tmax in Sprague-Dawley rat at 6 mg/kg, po; format: ADME, organism-based; design: dose 6 mg/kg, route oral; settings: in vivo
[10] = AUC in Sprague-Dawley rat at 6 mg/kg, po; format: ADME, organism-based; design: dose 6 mg/kg, route oral; settings: plasma
Cytochrome P450 1A2 = target: T2, Cytochrome P450 1A2 (Homo sapiens, UniProt P05177); experiment: Inhibition of CYP1A2 (unknown origin) at 3 uM; format: ADME
T2 sequence (P05177 whole entry): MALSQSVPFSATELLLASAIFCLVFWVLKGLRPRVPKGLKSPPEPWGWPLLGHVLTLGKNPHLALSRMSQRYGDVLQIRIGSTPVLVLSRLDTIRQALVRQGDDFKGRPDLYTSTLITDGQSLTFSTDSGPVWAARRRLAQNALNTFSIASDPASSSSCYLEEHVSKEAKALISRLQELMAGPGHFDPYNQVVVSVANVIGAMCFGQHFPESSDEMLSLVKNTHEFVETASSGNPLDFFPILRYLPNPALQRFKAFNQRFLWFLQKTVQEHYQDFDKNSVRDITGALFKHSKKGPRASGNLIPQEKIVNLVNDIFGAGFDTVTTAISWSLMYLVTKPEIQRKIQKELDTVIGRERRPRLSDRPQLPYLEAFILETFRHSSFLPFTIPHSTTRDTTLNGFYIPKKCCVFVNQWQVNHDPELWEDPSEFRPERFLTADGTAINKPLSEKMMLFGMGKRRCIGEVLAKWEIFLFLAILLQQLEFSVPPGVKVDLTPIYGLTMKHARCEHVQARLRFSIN

Rattus norvegicus [11] = experiment: Increase in prostate tissue weight in orchidectomized Sprague-Dawley rat at 3 to 30 mg/kg, sc qd for 4 days relative to vehicle-treated control; format: ADME, organism-based, Prostate gland; design: dose 3-30 mg/kg, route subcutaneous; settings: in vivo, 96 h
Rattus norvegicus [12] = experiment: Increase in levator ani muscle weight in orchidectomized Sprague-Dawley rat at 3 to 30 mg/kg, sc qd for 4 days relative to vehicle-treated control; format: functional, organism-based
[13] = Cmax in Sprague-Dawley rat at 10 mg/kg, sc; format: ADME, organism-based; design: dose 10 mg/kg, route subcutaneous; settings: in vivo
[14] = target: Voltage-gated inwardly rectifying potassium channel KCNH2 (Homo sapiens, UniProt Q12809); experiment: Binding affinity to human ERG by dofetilide binding assay
Rattus norvegicus [15] = experiment: Toxicity in Sprague-Dawley rat assessed as effect on serum triglyceride level at 3 to 100 mg/kg, sc qd for 14 days relative to vehicle-treated control; format: organism-based; design: dose 3-100 mg/kg, route subcutaneous; settings: in vivo, 336 h
[16] = Half life in Sprague-Dawley rat at 6 mg/kg, po; format: ADME, organism-based; design: dose 6 mg/kg, route oral; settings: in vivo
Cytochrome P450 3A4 = Cytochrome P450 3A4 (Homo sapiens, UniProt P08684); experiment: Inhibition of CYP3A4 (unknown origin) at 3 uM; format: ADME
Rattus norvegicus [17] = experiment: Toxicity in Sprague-Dawley rat assessed as effect on serum total cholesterol level at 3 to 100 mg/kg, sc qd for 14 days relative to vehicle-treated control; format: organism-based; design: dose 3-100 mg/kg, route subcutaneous; settings: in vivo, 336 h
[18] = Half life in Sprague-Dawley rat at 2 mg/kg, iv; format: ADME, organism-based; design: dose 2 mg/kg, route intravenous; settings: in vivo
Androgen receptor [19] = target: T1, Androgen receptor; experiment: Displacement of [3H]mibolerone from full length human AR expressed in COS cells after 3.5 hrs by liquid scintillation counting; format: cell-based
[20] = Tmax in Sprague-Dawley rat at 10 mg/kg, sc; format: ADME, organism-based; design: dose 10 mg/kg, route subcutaneous; settings: in vivo
Rattus norvegicus [21] = experiment: Increase in seminal vesicle weight in orchidectomized Sprague-Dawley rat at 3 to 30 mg/kg, sc qd for 4 days relative to vehicle-treated control; format: ADME, organism-based; design: dose 3-30 mg/kg, route subcutaneous; settings: in vivo, 96 h
[22] = Bioavailability in Sprague-Dawley rat at 10 mg/kg, sc; format: ADME, organism-based; settings: in vivo
Androgen receptor [23] = target: T1, Androgen receptor; experiment: Binding affinity to human AR NTD (1 to 561 aa) expressed in CV1 cells coexpressing human AR-LBD (644-919 aa) assessed as N/C-termini interaction by androgenic assay; format: cell-based, CV-1
[24] = AUC in Sprague-Dawley rat at 10 mg/kg, sc; format: ADME, organism-based; design: dose 10 mg/kg, route subcutaneous; settings: plasma
Cytochrome P450 2D6 = Cytochrome P450 2D6 (Homo sapiens, UniProt P10635); experiment: Inhibition of CYP2D6 (unknown origin) at 3 uM; format: ADME
Cytochrome P450 2C8 = target: T3, Cytochrome P450 2C8 (Homo sapiens, UniProt P10632); experiment: Inhibition of CYP2C8 (unknown origin) at 3 uM; format: ADME
T3 sequence (P10632 whole entry): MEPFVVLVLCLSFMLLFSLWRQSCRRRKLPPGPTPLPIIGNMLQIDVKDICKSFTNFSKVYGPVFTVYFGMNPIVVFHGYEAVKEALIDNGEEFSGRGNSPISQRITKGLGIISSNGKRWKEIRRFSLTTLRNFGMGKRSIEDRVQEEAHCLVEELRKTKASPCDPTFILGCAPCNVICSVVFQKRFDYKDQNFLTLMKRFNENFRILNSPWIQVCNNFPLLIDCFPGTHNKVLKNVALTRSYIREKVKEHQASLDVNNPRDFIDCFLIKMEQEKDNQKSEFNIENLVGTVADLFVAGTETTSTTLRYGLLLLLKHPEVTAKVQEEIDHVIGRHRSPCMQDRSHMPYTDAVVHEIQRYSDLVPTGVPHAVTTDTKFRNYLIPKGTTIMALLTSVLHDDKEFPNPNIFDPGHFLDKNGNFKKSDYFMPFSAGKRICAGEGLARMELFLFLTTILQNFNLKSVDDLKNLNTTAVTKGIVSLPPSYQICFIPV

[25] = Aqueous solubility of the compound at pH 6.5; format: physicochemical
Rattus norvegicus [26] = experiment: Toxicity in Sprague-Dawley rat assessed as effect on serum luteinizing hormone level at 3 to 10 mg/kg, sc qd for 14 days relative to vehicle-treated control; format: organism-based; design: dose 3-10 mg/kg, route subcutaneous; settings: in vivo, 336 h
[27] = Half life in Sprague-Dawley rat at 10 mg/kg, sc; format: ADME, organism-based; design: dose 10 mg/kg, route subcutaneous; settings: in vivo
[28] = Oral bioavailability in Sprague-Dawley rat at 6 mg/kg; format: ADME, organism-based; settings: in vivo
Rattus norvegicus [29] = experiment: Toxicity in Sprague-Dawley rat assessed as effect on serum HDL level at 3 to 100 mg/kg, sc qd for 14 days relative to vehicle-treated control; format: organism-based; design: dose 3-100 mg/kg, route subcutaneous; settings: in vivo, 336 h
[30] = Clearance in human liver microsomes; format: ADME; settings: read-out: CLH

Cytochrome P450 2C9, sequence (P11712 whole entry): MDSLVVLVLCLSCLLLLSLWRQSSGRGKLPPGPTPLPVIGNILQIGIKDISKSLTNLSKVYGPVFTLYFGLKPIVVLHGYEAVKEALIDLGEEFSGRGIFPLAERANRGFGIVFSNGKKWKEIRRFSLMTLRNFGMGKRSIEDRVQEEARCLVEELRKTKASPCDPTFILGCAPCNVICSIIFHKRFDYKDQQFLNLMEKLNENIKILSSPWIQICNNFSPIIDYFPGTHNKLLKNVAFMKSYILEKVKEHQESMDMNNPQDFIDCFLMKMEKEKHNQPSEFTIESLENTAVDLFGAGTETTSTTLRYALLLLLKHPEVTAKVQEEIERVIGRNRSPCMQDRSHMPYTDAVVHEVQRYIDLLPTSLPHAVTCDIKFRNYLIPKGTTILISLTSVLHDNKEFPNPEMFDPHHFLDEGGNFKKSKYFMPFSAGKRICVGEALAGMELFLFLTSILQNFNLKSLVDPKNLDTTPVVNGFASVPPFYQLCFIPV
Voltage-gated inwardly rectifying potassium channel KCNH2, sequence (Q12809 whole entry): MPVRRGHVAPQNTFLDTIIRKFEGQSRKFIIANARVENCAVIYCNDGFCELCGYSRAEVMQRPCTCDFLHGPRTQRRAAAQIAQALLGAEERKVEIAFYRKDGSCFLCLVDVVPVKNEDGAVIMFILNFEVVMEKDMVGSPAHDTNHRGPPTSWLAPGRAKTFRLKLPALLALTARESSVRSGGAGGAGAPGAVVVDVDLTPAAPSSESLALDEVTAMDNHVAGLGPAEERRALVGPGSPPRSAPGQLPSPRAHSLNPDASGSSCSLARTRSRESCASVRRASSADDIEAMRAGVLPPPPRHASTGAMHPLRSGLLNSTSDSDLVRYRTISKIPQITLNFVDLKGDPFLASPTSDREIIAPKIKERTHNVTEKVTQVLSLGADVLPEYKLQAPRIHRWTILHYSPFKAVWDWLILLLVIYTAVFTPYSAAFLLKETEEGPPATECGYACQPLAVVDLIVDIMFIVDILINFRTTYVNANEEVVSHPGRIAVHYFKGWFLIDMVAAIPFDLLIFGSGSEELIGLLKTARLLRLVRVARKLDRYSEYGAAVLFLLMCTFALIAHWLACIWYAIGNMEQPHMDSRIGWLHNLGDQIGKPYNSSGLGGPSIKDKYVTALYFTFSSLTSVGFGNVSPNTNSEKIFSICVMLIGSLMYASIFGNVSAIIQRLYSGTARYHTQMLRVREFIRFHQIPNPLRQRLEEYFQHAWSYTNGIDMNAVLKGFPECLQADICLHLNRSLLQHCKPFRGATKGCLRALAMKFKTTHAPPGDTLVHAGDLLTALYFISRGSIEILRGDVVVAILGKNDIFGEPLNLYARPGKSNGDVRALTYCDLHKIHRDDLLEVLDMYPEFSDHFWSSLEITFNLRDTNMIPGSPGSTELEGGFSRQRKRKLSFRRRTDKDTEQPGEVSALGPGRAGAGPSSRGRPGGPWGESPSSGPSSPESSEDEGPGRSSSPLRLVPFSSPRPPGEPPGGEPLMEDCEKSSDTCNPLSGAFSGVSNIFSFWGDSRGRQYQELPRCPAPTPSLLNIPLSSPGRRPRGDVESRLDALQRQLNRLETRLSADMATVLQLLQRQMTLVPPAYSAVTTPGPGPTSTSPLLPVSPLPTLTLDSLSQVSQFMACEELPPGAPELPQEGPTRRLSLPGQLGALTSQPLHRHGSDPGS
Cytochrome P450 2D6, sequence (P10635 whole entry): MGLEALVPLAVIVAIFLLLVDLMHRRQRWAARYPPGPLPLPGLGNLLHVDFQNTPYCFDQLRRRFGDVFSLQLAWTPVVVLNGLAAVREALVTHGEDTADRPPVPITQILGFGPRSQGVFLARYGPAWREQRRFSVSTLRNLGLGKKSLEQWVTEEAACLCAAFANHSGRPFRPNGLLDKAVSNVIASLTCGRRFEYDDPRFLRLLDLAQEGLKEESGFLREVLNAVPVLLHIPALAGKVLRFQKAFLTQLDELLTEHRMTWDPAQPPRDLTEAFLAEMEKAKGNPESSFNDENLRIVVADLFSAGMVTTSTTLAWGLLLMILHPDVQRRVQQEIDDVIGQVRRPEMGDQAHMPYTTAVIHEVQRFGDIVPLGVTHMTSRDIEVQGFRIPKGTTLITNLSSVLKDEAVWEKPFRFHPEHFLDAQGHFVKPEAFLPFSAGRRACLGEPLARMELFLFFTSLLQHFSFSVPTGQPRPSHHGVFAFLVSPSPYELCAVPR
Cytochrome P450 3A4, sequence (P08684 whole entry): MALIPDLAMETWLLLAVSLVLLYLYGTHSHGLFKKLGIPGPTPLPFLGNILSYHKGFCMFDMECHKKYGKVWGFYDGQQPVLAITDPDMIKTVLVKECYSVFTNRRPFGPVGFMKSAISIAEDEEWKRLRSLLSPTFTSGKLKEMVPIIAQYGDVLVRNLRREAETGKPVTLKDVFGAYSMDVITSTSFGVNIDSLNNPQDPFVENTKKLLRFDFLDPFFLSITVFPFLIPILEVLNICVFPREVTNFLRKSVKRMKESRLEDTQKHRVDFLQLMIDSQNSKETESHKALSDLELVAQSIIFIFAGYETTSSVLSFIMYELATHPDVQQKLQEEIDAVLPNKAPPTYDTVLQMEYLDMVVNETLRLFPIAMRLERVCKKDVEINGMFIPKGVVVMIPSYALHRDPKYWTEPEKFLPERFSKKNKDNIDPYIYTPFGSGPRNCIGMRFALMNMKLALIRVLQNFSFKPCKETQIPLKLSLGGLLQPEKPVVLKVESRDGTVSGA

## C[C@](O)(COc1ccc(F)cc1)C(=O)N1CCc2c(C#N)cccc21
Rattus norvegicus [1]
  Activity: Non-toxic
[2]
  MTD at 336 h: 100 mg/kg
Rattus norvegicus [3]
  Activity: Non-toxic
[4]
  IC50: > 300000 nM
Cytochrome P450 2C9
  inhibition (INH): Not Active
Androgen receptor [5]
  EC50: 2.5 nM
[6]
  AUC: 1100 ng·h/mL
[7]
  Vd: 6 L/kg
[8]
  Cmax: 254 ng/mL
[9]
  Tmax: 8 h
[10]
  AUC: 3750 ng·h/mL
Cytochrome P450 1A2
  inhibition (INH): Not Active
Rattus norvegicus [11]
  Activity: Non-toxic
Rattus norvegicus [12]
  Activity: Active
[13]
  Cmax: 166 ng/mL
[14]
  IC50: > 100000 nM
Rattus norvegicus [15]
  Activity: Non-toxic
[16]
  half-life: 5 h
Cytochrome P450 3A4
  inhibition (INH): Not Active
Rattus norvegicus [17]
  Activity: Non-toxic
[18]
  half-life: 5 h
Androgen receptor [19]
  IC50: 12.7 nM
[20]
  Tmax: 4 h
Rattus norvegicus [21]
  Activity: Non-toxic
[22]
  bioavailability: 37%
Androgen receptor [23]
  EC50: > 10000 nM
[24]
  AUC: 2030 ng·h/mL
Cytochrome P450 2D6
  inhibition (INH): Not Active
Cytochrome P450 2C8
  inhibition (INH): Not Active
[25]
  solubility: 14 µM (≈ 4.76 µg/mL)
Rattus norvegicus [26]
  Activity: Non-toxic
[27]
  half-life: 6 h
[28]
  bioavailability: > 100%
Rattus norvegicus [29]
  Activity: Non-toxic
[30]
  microsomal CLint: 21 µL/min/mg
